Reference: US20210115018A1, “PIPERIDINE COMPOUNDS AS COVALENT MENIN INHIBITORS” (THE REGENTS OF THE UNIVERSITY OF MICHIGAN, priority 2018, published 2021)

How the values were obtained:
[1] = target: T1, menin protein (Homo sapiens, UniProt O00255); assay: Fluorescence polarization (FP) competitive binding assay, menin binding affinity; conditions: FP competition with FAM-MM2 probe 2 nM, menin 4 nM, 30 minutes room temperature
T1 sequence (O00255 1-610): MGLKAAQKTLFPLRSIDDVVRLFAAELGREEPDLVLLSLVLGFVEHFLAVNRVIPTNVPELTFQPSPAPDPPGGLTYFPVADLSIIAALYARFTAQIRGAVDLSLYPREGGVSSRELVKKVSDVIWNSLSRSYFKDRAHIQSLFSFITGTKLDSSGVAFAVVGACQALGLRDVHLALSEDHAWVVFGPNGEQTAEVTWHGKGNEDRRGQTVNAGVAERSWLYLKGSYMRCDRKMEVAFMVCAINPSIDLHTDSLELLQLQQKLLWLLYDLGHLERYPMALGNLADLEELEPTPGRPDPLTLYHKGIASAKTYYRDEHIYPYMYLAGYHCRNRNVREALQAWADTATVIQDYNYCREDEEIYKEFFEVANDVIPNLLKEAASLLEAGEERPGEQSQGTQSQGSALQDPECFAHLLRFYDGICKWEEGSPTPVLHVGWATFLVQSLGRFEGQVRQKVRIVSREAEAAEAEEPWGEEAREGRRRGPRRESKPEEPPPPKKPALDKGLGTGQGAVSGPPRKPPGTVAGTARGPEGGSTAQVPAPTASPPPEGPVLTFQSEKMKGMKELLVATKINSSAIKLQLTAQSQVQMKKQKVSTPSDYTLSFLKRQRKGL
Experimental: A fluorescence polarization (FP) competitive binding assay was used to determine the binding affinities of representative menin inhibitors. A FAM labeled fluorescent probe was designed and synthesized based on a MLL1 peptide (FAM-MM2). Equilibrium dissociation constant (Kd) value of FAM-MM2 to menin protein was determined from protein saturation experiments by monitoring the total fluorescence polarization of mixtures composed with the fluorescent probe at a fixed concentration and the protein with increasing concentrations up to full saturation. Serial dilutions of the protein were mixed with FAM-MM2 to a final volume of 200 μl in the assay buffer (PBS with 0.02% Bovine γ-Globulin and 4% DMSO. 0.01% Triton X-100 was added right before assays). Final FAM-MM2 concentration was 2 nM. Plates were incubated at room temperature for 30 minutes with gentle shaking to assure equilibrium. FP values in millipolarization units (mP) were measured using the Infinite M-1000 plate reader (Tecan U.S., Research Triangle Park, N.C.) in Microfluor 1 96-well, black, v-bottom plates (Thermo Scientific, Waltham, Mass.) at an excitation wavelength of 485 nm and an emission wavelength of 530 nm.
The IC50 of representative Compounds of the Disclosure, see Table 3, were determined in a competitive binding experiment. Mixtures of 5 μl of the tested compounds in DMSO and 195 μl of preincubated protein/probe complex solution in the assay buffer were added into assay plates which were incubated at room temperature for 30 minutes with gentle shaking. Final concentration of the menin protein was 4 nM, and final probe concentration is 2 nM. Negative controls containing protein/probe complex only (equivalent to 0% inhibition), and positive controls containing only free probes (equivalent to 100% inhibition), were included in each assay plate. FP values were measured as described above. IC50 values were determined by nonlinear regression fitting of the competition curves.

[2] = test system: MV4-11; assay: 7-day proliferation assay (WST-8), cell growth inhibition; format: cell-based; conditions: MV4-11 cells, 7 days
Summary of the method: (§1)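 Cells seeded at 2,000-3,000/well were exposed to serially diluted compound for 7 days at 37° C., 5% CO2. Viability was read by WST-8 absorbance at 450 nm after 1-2 h color development; readings normalized to DMSO-treated cells, IC50 by four-parameter nonlinear regression.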

[3] = test system: MOLM13; assay: as above; format: cell-based; conditions: Homo sapiens, MOLM-13, 168 h, MOLM13 cells, 7 days
Summary of the method: as §1

IC50 [1] [nM]	IC50 ([2]; Homo sapiens, MV4-11, 168 h) [nM]	IC50 [3] [nM]	IC50 [2] [nM]	SMILES
–	< 10	< 50	–	C=CC(=O)Nc1cc(F)cc(S(=O)(=O)c2ccc(N3CC(CN4CCC([C@@](CN5CCC5)(c5cccc(F)c5)[C@H]5CCC[C@@H]5NC(=O)OC)CC4)C3)cc2)c1 [compound 72]
–	< 10	< 50	–	C=CC(=O)Nc1cccc(S(=O)(=O)c2ccc(N3CC(F)(CN4CCC([C@@](CN5CCC5)(c5cccc(F)c5)[C@H]5CCC[C@@H]5NC(=O)OC)CC4)C3)cc2)c1 [compound 76]
–	< 10	< 100	–	C=CC(=O)Nc1cc(S(=O)(=O)c2ccc(N3CC(F)(CN4CCC([C@@](CN5CCC5)(c5cccc(F)c5)[C@H]5CCC[C@@H]5NC(=O)OC)CC4)C3)cc2)ccn1 [compound 82]
–	< 10	< 100	–	C=CC(=O)Nc1cncc(S(=O)(=O)c2ccc(N3CC(F)(CN4CCC([C@@](CN5CCC5)(c5cccc(F)c5)[C@H]5CCC[C@@H]5NC(=O)OC)CC4)C3)cc2)c1 [compound 83]
–	< 500	< 500	–	C=CC(=O)Nc1cccc(S(=O)(=O)c2ccc(N3CC(F)(CN4CCC([C@@](CN5CCC5)(c5cccc(F)c5)[C@H]5CCC[C@@H]5NC(=O)OC)CC4)C3)cc2)n1 [compound 85]
2	–	–	< 50	C=CC(=O)Nc1cncc(S(=O)(=O)c2ccc(N3CC(F)(CN4CCC([C@@](CN5CCC5)(c5cccc(F)c5)[C@H]5CCC[C@@H]5NC(=O)OC)CC4)C3)c(F)c2)c1 [compound 86]
–	< 50	< 50	–	C=CC(=O)Nc1cc(F)cc(S(=O)(=O)c2ccc(N3CC(F)(CN4CCC([C@@](CN5CCC5)(c5cccc(F)c5)[C@H]5CCC[C@@H]5NC(=O)OC)CC4)C3)cc2)c1 [compound 88]
–	< 50	< 50	–	C=CC(=O)Nc1cc(OC)cc(S(=O)(=O)c2ccc(N3CC(F)(CN4CCC([C@@](CN5CCC5)(c5cccc(F)c5)[C@H]5CCC[C@@H]5NC(=O)OC)CC4)C3)c(F)c2)c1 [compound 91]
–	< 10	< 50	–	C=CC(=O)Nc1cc(S(=O)(=O)c2ccc(N3CC(F)(CN4CCC([C@@](CN5CCC5)(c5cccc(F)c5)[C@H]5CCC[C@@H]5NC(=O)OC)CC4)C3)c(F)c2)ccc1OC [compound 92]
–	< 50	< 50	–	C=CC(=O)N1CCCC(S(=O)(=O)c2ccc(N3CC(F)(CN4CCC([C@@](CN5CCC5)(c5cccc(F)c5)[C@H]5CCC[C@@H]5NC(=O)OC)CC4)C3)cc2)C1 (some centres unmarked) [compound 112]
–	< 50	< 50	–	C=CC(=O)N1CCOCC(S(=O)(=O)c2ccc(N3CC(F)(CN4CCC([C@@](CN5CCC5)(c5cccc(F)c5)[C@H]5CCC[C@@H]5NC(=O)OC)CC4)C3)cc2)C1 (some centres unmarked) [compound 125]
–	< 500	< 1000	–	C=CC(=O)N1CCc2ccc(S(=O)(=O)c3ccc(N4CC(F)(CN5CCC([C@@](CN6CCC6)(c6cccc(F)c6)[C@H]6CCC[C@@H]6NC(=O)OC)CC5)C4)c(F)c3)cc21 [compound 126]
–	< 100	< 500	–	C=CC(=O)N1CCc2c1cccc2S(=O)(=O)c1ccc(N2CC(F)(CN3CCC([C@@](CN4CCC4)(c4cccc(F)c4)[C@H]4CCC[C@@H]4NC(=O)OC)CC3)C2)c(F)c1 [compound 127]

Further lines, the compound ahead of its results:

SMILES	IC50 [1] [nM]	IC50 ([2]; Homo sapiens, MV4-11, 168 h) [nM]	IC50 [3] [nM]	IC50 [2] [nM]
COC(=O)N[C@H]1CCC[C@@H]1[C@](CN1CCC1)(c1cccc(F)c1)C1CCN(CC2CN(c3ccc(S(=O)(=O)C4CN(C(=O)/C=C/CN5CCOCC5)C4)cc3)C2)CC1 [Cpd. No. 25, methyl ((1S,2R)-2-((S)-2-(azetidin-1-yl)-1-(3-fluorophenyl)-1-(1-((1-(4-((1-((E)-4-morpholinobut-2-enoyl)azetidin-3-yl)sulfonyl)phenyl)azetidin-3-yl)methyl)piperidin-4-yl)ethyl)cyclopentyl)carbamate]	7	< 10	–	–
COC(=O)N[C@H]1CCC[C@@H]1[C@](CN1CCC1)(c1cccc(F)c1)C1CCN(CC2CN(c3ccc(S(=O)(=O)C4CN(C(=O)/C=C/CN5CCC5)C4)cc3)C2)CC1 [Cpd. No. 173, Methyl ((1S,2R)-2-((S)-2-(azetidin-1-yl)-1-(1-((1-(4-((1-((E)-4-(azetidin-1-yl)but-2-enoyl)azetidin-3-yl)sulfonyl)phenyl)azetidin-3-yl)methyl)piperidin-4-yl)-1-(3-fluorophenyl)ethyl)cyclopentyl)carbamate]	2	< 10	–	–
COC(=O)N[C@H]1CCC[C@@H]1[C@](CN1CCC1)(c1cccc(F)c1)C1CCN(CC2CN(c3ccc(C(F)(F)C4CN(C(=O)/C=C/CN5CCCCC5)C4)cc3)C2)CC1 [compound 71]	2	< 50	–	–
C=CC(=O)Nc1cc(N(C)CCN(C)C)cc(S(=O)(=O)c2ccc(N3CC(CN4CCC([C@@](CN5CCC5)(c5cccc(F)c5)[C@H]5CCC[C@@H]5NC(=O)OC)CC4)C3)cc2)c1 [compound 75]	–	< 10	< 50	–
COC(=O)N[C@H]1CCC[C@@H]1[C@](CN1CCC1)(c1cccc(F)c1)C1CCN(CC2(F)CN(c3ccc(S(=O)(=O)C4CN(C(=O)/C=C/CN5CCCCC5)C4)cc3F)C2)CC1 [compound 94]	–	< 10	< 50	–
COC(=O)N[C@H]1CCC[C@@H]1[C@](CN1CCC1)(c1cccc(F)c1)C1CCN(CC2(F)CN(c3ccc(S(=O)(=O)C4CN(C(=O)/C=C/CN5CCCCC5)C4)cc3)C2)CC1 [compound 95]	–	< 10	< 50	–
COC(=O)N[C@H]1CCC[C@@H]1[C@](CN1CCC1)(c1cccc(F)c1)C1CCN(CC2CN(c3ccc(S(=O)(=O)C4CN(C(=O)/C=C/CN5CCC(F)CC5)C4)cc3)C2)CC1 [compound 100]	4	< 10	–	–
CC#CC(=O)N1CC(S(=O)(=O)c2ccc(N3CC(F)(CN4CCC([C@@](CN5CCC5)(c5cccc(F)c5)[C@H]5CCC[C@@H]5NC(=O)OC)CC4)C3)c(F)c2)C1 [compound 102]	–	< 10	< 50	–
COC(=O)N[C@H]1CCC[C@@H]1[C@](CN1CCC1)(c1cccc(F)c1)C1CCN(CC2CN(c3ccc(S(=O)(=O)C4CN(C(=O)/C=C/CN5CCC(F)(F)CC5)C4)cc3)C2)CC1 [compound 103]	2	< 10	–	–
COC(=O)N[C@H]1CCC[C@@H]1[C@](CN1CCC1)(c1cccc(F)c1)C1CCN(CC2(F)CN(c3ccc(S(=O)(=O)C4CCCN(C(=O)/C=C/CO)C4)cc3F)C2)CC1 (some centres unmarked) [compound 122]	–	< 50	< 100	–
COC(=O)N[C@H]1CCC[C@@H]1[C@](CNC(C)=O)(c1cccc(F)c1)C1CCN(CC2CN(c3ccc(S(=O)(=O)C4CN(C(=O)/C=C/CN(C)C)C4)cc3)C2)CC1 [compound 128]	–	< 10	< 100	–
C=CC(=O)N1CC(S(=O)(=O)c2ccc(N3CC(CN4CCC([C@@](CNC(C)=O)(c5cccc(F)c5)[C@H]5CCC[C@@H]5NC(=O)OC)CC4)C3)cc2CN2CC(F)C2)C1 [compound 176]	–	< 50	< 50	–
C=CC(=O)N1CC(S(=O)(=O)c2ccc(N3CC(F)(CN4CCC([C@@](CNC(C)=O)(c5cccc(F)c5)[C@H]5CCC[C@@H]5NC(=O)OC)CC4)C3)cc2CN2CC(F)C2)C1 [compound 177]	–	< 100	< 500	–
C=CC(=O)N1CCOC[C@@H](S(=O)(=O)c2ccc(N3CC(CN4CCC([C@@](CNC(=O)OC)(c5cccc(F)c5)[C@H]5CCC[C@@H]5NC(=O)OC)CC4)C3)c(F)c2)C1 [compound 179]	–	< 50	< 100	–
CC#CC(=O)N1CC[C@@H](S(=O)(=O)c2ccc(N3CC(O)(CN4CCC([C@@](CNC(C)=O)(c5cccc(F)c5)[C@H]5CCC[C@@H]5NC(=O)OC)CC4)C3)c(F)c2)C1 [compound 206]	2	< 50	–	–
